Reference: ChEMBL document CHEMBL5252578, “seco-Pregnane Glycosides from Australian Caustic Vine (Cynanchum viminale subsp. australe)” (J Nat Prod, 2023)
Calls of active or inactive are those of the source. The rule behind the calls is not given here.

Legend:
[1] = molecular target: Cholinesterase (Equus caballus) (UniProt P81908); test: Inhibition of equine BuChE at 100 uM using […] as substrate incubated for 29 mins by Ellman's method relative to control
Sarcoptes scabiei [2] = test: Miticidal activity against Sarcoptes scabiei Larva assessed as effect on larval mortality at 100 uM measured upto 48 hrs by microscopic analysis; format: functional, organism-based
Sarcoptes scabiei [3] = test: Miticidal activity against Sarcoptes scabiei assessed as mortality rate at 100 uM measured upto 48 hrs by microscopic analysis; format: functional
Sarcoptes scabiei [4] = test: Miticidal activity against Sarcoptes scabiei eggs assessed as effect on egg hatching at 100 uM measured upto 48 hrs by microscopic analysis; format: functional, organism-based
NFF = test: Cytotoxicity against human NFF cells assessed as cell growth inhibition measured after 6 days by SRB assay; format: functional, cell-based; details: 144 h
HeLa = test: Cytotoxicity against human HeLa cells assessed as cell growth inhibition measured after 6 days by SRB assay; format: functional, cell-based; details: 144 h
MCF7 = test: Cytotoxicity against human MCF7 cells assessed as cell growth inhibition measured after 6 days by SRB assay; format: functional, cell-based; details: MCF7, 144 h
MM96L = test: Cytotoxicity against human MM96L cells assessed as cell growth inhibition measured after 6 days by SRB assay; format: functional, cell-based; details: 144 h
HT-29 = test: Cytotoxicity against human HT-29 cells assessed as cell growth inhibition measured after 6 days by SRB assay; format: functional, cell-based; details: HT-29, 144 h

Sequence of Cholinesterase (Equus caballus) (P81908 whole entry): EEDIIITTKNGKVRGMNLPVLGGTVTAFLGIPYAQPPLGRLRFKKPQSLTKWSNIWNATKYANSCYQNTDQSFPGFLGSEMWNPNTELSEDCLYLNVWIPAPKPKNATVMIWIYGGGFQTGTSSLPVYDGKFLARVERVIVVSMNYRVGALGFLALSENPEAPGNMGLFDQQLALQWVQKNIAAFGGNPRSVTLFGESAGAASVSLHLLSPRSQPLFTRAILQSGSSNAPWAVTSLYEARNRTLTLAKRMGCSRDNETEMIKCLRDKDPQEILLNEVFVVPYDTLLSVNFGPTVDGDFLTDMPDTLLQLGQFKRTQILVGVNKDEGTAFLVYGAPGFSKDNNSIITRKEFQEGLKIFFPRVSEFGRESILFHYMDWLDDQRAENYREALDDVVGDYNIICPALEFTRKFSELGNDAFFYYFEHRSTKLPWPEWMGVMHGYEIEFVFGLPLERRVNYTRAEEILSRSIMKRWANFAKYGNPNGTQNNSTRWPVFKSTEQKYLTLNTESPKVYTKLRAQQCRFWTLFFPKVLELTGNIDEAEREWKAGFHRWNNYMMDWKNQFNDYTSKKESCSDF

With `CO[C@H]1C[C@H](O[C@H]2[C@@H](OC)C[C@H](O[C@H]3CC[C@@]4(C)C(=CCC(=O)[C@@H]4C[C@@H](OC(C)=O)[C@@]4(C)C(=O)CC[C@H]4C(C)=O)C3)O[C@@H]2C)O[C@H](C)[C@H]1O` the inhibition [1] was 13.5%, the Activity (Sarcoptes scabiei [2]) was “inactive” and the Activity (Sarcoptes scabiei [3]) was 30%. For the same molecule, the Activity (Sarcoptes scabiei [4]) was “inactive”.
With `CO[C@H]1C[C@H](O[C@H]2CC[C@@]3(C)C(=CCC(=O)[C@@H]3C[C@@H](OC(C)=O)[C@@]3(C)C(=O)CC[C@H]3C(C)=O)C2)O[C@H](C)[C@H]1O[C@H]1C[C@@H](OC)[C@H](O)[C@@H](C)O1` the inhibition [1] was 2.64%, the Activity (Sarcoptes scabiei [2]) was “inactive” and the Activity (Sarcoptes scabiei [3]) was “inactive”. The Activity (Sarcoptes scabiei [4]) was “inactive”.
`C[C@@]1([C@@H](C[C@H]2C(=O)CC=C3C[C@@H](O)CC[C@@]32C)OC(=O)c2ccccc2)C(=O)[C@@]2(C)CC[C@@H]1O2` was tested, and the inhibition [1] was 14%, the IC50 (NFF) was over 10 µM and the IC50 (HeLa) was over 10 µM. For the same molecule, the IC50 (MCF7) was over 10 µM, the IC50 (MM96L) was over 10 µM and the IC50 (HT-29) was over 10 µM.
In the case of `CC(=O)O[C@H](C[C@H]1C(=O)CC=C2C[C@@H](O)CC[C@@]21C)[C@@]1(C)C(=O)CC[C@H]1C(C)=O`, the inhibition [1] is reported as 7.72%.
